Measured values from patent publication US9102620B2, “Deuterated N-ethyl-N-phenyl-1,2-dihydro-4-hydroxy-5-chloro-1-methyl-2-oxoquinoline-3-carboxamide, salts and uses thereof” (TEVA PHARMACEUTICAL INDUSTRIES, LTD., priority 2010, dated 2015).
Read-outs that look alike come from different tables or passages of the source.

Columns and labels:
CYP1A2 mRNA = settings: human, 3 days; for mRNA Percent positive control, CYP1A2: hepatocytes
Experimental: (§1) After treatment, the cells were incubated in situ with marker substrates for the analysis of phenacetin O-dealkylation (marker for CYP1A2) and midazolam 1′-hydroxylation (marker for CYP3A4/5) by LC/MS/MS.
(§2) Approximately 24 hours after the last treatment, hepatocytes were lysed in TRIzol reagent after the in situ marker substrate incubations, and cell lysates were stored at −75±5° C. For human hepatocyte preparation H971, media from six wells per treatment group was aspirated, and approximately 132 μL TRIzol were added to each well. The cell lysates were mixed by repeated pipetting. Total RNA was isolated from the cell lysates using the TRIzol protocol (Invitrogen) and was purified using the RNeasy Mini Kit (Qiagen Inc.) according to SOP L6161.02. RNA quality and concentration were determined by measuring absorbance at 260 and 280 nm on a BioTek Synergy HT plate reader (BioTek Instruments, Inc.) with KC4 Signature software (version 3.4 Rev 21, BioTek Instruments, Inc.) according to SOP L6162.02. The analysis of RNA integrity was carried out with the RNA 6000 Nano Assay Kit on an Agilent 2100 Bioanalyzer (Agilent Technologies, Inc.) according to SOP L6162.02. Single-stranded cDNA was prepared from RNA with the RT Master Mix using the AB 7300 Real Time PCR system thermocycling program or AB 7900HT Fast Real Time PCR System thermocycling program (Applied Biosystems) according to SOP L6160.04. […] The RT Master Mix was added to each RNA sample to complete the components of the reaction. No template controls (NTCs) were included in the analysis. For the NTC reactions, RNase-free water was added in place of the RNA sample. The cDNA prepared samples were stored at −20±5° C. prior to analysis by qRT-PCR.
(§3) Quantitative RT-PCR was carried out according to SOP L6160.04 (XenoTech, LLC) and the Applied Biosystems protocol. Each PCR was performed in triplicate. A Primer Mix was prepared for each Gene Expression assay. A typical Primer Mix contained TaqMan Universal Master Mix (1×), Gene Expression Assay (1×, 900 nM forward and reverse primers) and RNase-free water. The Reaction Mix was prepared by adding the Primer Mix to cDNA. A percentage of samples (no less than 10%) included NACs. […] The relative quantity of the target cDNA compared with that of the control cDNA (GAPDH) was determined by the ΔΔCt method (Applied Biosystems User Bulletin #2). Relative quantification measures the change in mRNA expression in a test sample relative to that in a control sample (e.g., DMSO). This method assumes that the efficiency of the target amplification and the efficiency of the endogenous control amplification are approximately equal.
(§4) For qRT-PCR, data were processed using the Sequence Detection System (SDS) Software version 1.4, for Relative Quantification (Applied Biosystems). This software analyzes relative gene expression using the comparative Ct method (ΔΔCt), which relates the PCR signal of the target transcript to the PCR signal of the target in an untreated control. Both the treated sample and the untreated control signals are normalized to the endogenous control (GAPDH), for which expression is not affected by treatment and expression is constant throughout the tissue being tested. […] Calculations are as follows: ΔCt=Ct(target)−Ct(endogenous control) 1. ΔΔCt=ΔCt(treated sample)−ΔCt(untreated control) 2. Fold change in expression=2−ΔΔCt 3.
(§5) The level of mRNA expression relative to the positive control was calculated as follows: […]

CYP3A4 mRNA = settings: human, 3 days; for mRNA Percent positive control, CYP3A4: hepatocytes
Experimental: as §1, §2, §3, §4, §5

[1] = test system: cultured human hepatocytes; format: in vitro ADME
Experimental: Just prior to treatment, on each day of treatment, and just prior to incubation of the marker substrates, spent culture medium (spent dosing media) were collected from the vehicle, laquinimod and Compound 2 treatment groups. Approximately 150 μL was collected from each of three wells, from each aforementioned treatment groups, and pooled for each sample to a final volume of approximately 450 μL. These spent media samples were analyzed for residual laquinimod, Compound 2 and the de-ethylated metabolite (DELAQ).
The concentrations of Compound 2, laquinimod and DELAQ were measured in spent media aliquots from media collected just prior to treatment, on each day of treatment, and just prior to incubation of the marker substrates. The concentration of formed DELAQ was approximately 2-fold higher in the laquinimod media compared to the Compound 2 media. At the 10 μM treatment concentrations of either Compound 2 or laquinimod, the ratio of Compound 2:DELAQ was on average, 40.9 while the ratio of laquinimod:DELAQ was on average, 15.7. This represents an approximately 3-fold increase in the formation of DELAQ from laquinimod compared to Compound 2 and is explained by the presence of deuterium on the ethyl moiety which results in slower N-deethylation.

| SMILES | mRNA Fold increase, CYP1A2 (CYP1A2 mRNA; 0.01 μM) [fold] | mRNA Fold increase, CYP1A2 (CYP1A2 mRNA; 0.05 μM) [fold] | mRNA Fold increase, CYP1A2 (CYP1A2 mRNA; 0.1 μM) [fold] | mRNA Fold increase, CYP1A2 (CYP1A2 mRNA; 1 μM) [fold] | mRNA Fold increase, CYP1A2 (CYP1A2 mRNA; 10 μM) [fold] | mRNA Percent positive control, CYP1A2 (CYP1A2 mRNA; 0.01 μM) [%] | mRNA Percent positive control, CYP1A2 (CYP1A2 mRNA; 0.05 μM) [%] | mRNA Percent positive control, CYP1A2 (CYP1A2 mRNA; 0.1 μM) [%] | mRNA Percent positive control, CYP1A2 (CYP1A2 mRNA; 1 μM) [%] | mRNA Percent positive control, CYP1A2 (CYP1A2 mRNA; 10 μM) [%] | mRNA Fold increase, CYP3A4 (CYP3A4 mRNA; 0.01 μM) [fold] | mRNA Fold increase, CYP3A4 (CYP3A4 mRNA; 0.05 μM) [fold] | mRNA Fold increase, CYP3A4 (CYP3A4 mRNA; 0.1 μM) [fold] | mRNA Fold increase, CYP3A4 (CYP3A4 mRNA; 1 μM) [fold] | mRNA Fold increase, CYP3A4 (CYP3A4 mRNA; 10 μM) [fold] | mRNA Percent positive control, CYP3A4 (CYP3A4 mRNA; 0.01 μM) [%] | mRNA Percent positive control, CYP3A4 (CYP3A4 mRNA; 0.05 μM) [%] | mRNA Percent positive control, CYP3A4 (CYP3A4 mRNA; 0.1 μM) [%] | mRNA Percent positive control, CYP3A4 (CYP3A4 mRNA; 1 μM) [%] | mRNA Percent positive control, CYP3A4 (CYP3A4 mRNA; 10 μM) [%] | further results |
| --- | --- | --- | --- | --- | --- | --- | --- | --- | --- | --- | --- | --- | --- | --- | --- | --- | --- | --- | --- | --- | --- |
| [2H]C([2H])([2H])C([2H])([2H])N(C(=O)c1c(O)c2c(Cl)cccc2n(C)c1=O)c1ccccc1 [Compound 2, N-D5-ethyl-N-phenyl-1,2-dihydro-4-hydroxy-5-chloro-1-methyl-2-oxoquinoline-3-carboxamide] | 2.84 | 4.98 | 7.20 | 13.1 | 24.3 | 24.2 | 52.5 | 81.7 | 159 | 307 | 0.437 | 0.428 | 0.339 | 0.252 | 0.689 | −15.5 | −15.8 | −18.2 | −20.6 | −8.57 | difference in the Compound 2:DELAQ to laquinimod:DELAQ ratio ([1]; 10 μM): ~3 fold; ratio of test article:DELAQ in spent media, on average ([1]; 10 μM): 40.9 |
| CCN(C(=O)c1c(O)c2c(Cl)cccc2n(C)c1=O)c1ccccc1 [Laquinimod, N-ethyl-N-phenyl-1,2-dihydro-4-hydroxy-5-chloro-1-methyl-2-oxoquinoline-3-carboxamide] | 4.22 | 7.90 | 9.50 | 16.8 | 20.5 | 42.5 | 91.1 | 112 | 209 | 257 | 0.621 | 0.347 | 0.427 | 0.286 | 0.636 | −10.4 | −18.0 | −15.8 | −19.7 | −10.0 | concentration of formed DELAQ in laquinimod media compared to Compound 2 media [1]: approximately 2 fold; increase in the formation of DELAQ from laquinimod compared to Compound 2 ([1]; 10 μM): approximately 3 fold; ratio of test article:DELAQ in spent media, on average ([1]; 10 μM): 15.7 |
